Source: ChEMBL document CHEMBL1130772, “New nonsteroidal androgen receptor modulators based on 4-(trifluoromethyl)-2(1H)-pyrrolidino[3,2-g] quinolinone” (Bioorg Med Chem Lett, 1998)

Key:
Progesterone receptor = target: T1, Progesterone receptor (Homo sapiens, UniProt P06401); assay: (§1) Antagonistic activity against hPR in co-transfected CV-1 cell; assay type: functional, cell-based
T1 sequence (P06401 whole entry): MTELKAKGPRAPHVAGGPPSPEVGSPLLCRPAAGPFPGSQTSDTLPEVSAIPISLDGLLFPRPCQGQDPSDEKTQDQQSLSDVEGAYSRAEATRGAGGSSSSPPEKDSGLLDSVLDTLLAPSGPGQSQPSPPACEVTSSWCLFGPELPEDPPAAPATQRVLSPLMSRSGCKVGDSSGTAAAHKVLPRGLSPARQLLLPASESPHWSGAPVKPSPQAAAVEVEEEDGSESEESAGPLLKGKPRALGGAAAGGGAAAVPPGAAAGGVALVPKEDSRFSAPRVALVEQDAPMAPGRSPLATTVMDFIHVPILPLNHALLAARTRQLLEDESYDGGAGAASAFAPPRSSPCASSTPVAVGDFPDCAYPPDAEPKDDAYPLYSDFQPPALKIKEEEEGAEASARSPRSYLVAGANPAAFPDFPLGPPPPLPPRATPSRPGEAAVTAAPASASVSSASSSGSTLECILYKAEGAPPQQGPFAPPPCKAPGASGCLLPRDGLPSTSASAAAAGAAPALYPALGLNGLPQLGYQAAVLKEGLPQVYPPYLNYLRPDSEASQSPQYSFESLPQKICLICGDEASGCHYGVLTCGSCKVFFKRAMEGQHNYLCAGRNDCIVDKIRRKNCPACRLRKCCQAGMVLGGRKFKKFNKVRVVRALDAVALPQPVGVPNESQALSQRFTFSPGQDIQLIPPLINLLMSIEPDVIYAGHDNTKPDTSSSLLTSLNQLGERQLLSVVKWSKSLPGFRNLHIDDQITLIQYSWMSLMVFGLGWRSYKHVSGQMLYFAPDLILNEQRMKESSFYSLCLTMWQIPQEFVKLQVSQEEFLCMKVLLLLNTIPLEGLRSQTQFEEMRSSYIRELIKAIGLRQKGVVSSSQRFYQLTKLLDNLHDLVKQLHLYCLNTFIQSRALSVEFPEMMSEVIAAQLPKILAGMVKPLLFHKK

[1] = target: T2, Progesterone receptor (Homo sapiens) (UniProt P06401); assay: as §1; assay type: functional, cell-based
T2 sequence (whole entry): T1 sequence (P06401 whole entry)

[2] = target: T3, Glucocorticoid receptor (Homo sapiens) (UniProt P04150); assay: Antagonistic activity against Glucocorticoid receptor in co-transfected CV-1 cell; assay type: functional, cell-based
T3 sequence (whole entry): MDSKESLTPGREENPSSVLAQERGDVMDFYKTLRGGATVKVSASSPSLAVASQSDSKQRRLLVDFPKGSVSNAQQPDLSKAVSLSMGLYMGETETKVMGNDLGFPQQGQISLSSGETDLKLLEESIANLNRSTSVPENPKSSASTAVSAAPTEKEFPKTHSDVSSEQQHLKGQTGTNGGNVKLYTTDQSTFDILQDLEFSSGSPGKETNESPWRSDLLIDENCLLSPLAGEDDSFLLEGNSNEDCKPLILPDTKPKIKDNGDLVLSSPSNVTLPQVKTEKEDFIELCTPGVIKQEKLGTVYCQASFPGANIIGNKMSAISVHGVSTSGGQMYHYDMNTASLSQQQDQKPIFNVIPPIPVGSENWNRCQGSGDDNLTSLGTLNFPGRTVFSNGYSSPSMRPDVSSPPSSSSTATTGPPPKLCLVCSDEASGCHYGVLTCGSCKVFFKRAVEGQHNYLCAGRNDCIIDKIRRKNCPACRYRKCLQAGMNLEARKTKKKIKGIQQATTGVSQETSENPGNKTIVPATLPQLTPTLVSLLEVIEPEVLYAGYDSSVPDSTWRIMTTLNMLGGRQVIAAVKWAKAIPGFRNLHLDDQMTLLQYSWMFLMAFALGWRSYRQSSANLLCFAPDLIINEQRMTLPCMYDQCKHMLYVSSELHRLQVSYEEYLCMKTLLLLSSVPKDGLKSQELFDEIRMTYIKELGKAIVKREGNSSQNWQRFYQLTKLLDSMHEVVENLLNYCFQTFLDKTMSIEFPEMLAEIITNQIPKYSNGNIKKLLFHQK

Androgen receptor = target: T4, Androgen receptor (Homo sapiens, UniProt P10275); settings: cv-1
T4 sequence (P10275 whole entry): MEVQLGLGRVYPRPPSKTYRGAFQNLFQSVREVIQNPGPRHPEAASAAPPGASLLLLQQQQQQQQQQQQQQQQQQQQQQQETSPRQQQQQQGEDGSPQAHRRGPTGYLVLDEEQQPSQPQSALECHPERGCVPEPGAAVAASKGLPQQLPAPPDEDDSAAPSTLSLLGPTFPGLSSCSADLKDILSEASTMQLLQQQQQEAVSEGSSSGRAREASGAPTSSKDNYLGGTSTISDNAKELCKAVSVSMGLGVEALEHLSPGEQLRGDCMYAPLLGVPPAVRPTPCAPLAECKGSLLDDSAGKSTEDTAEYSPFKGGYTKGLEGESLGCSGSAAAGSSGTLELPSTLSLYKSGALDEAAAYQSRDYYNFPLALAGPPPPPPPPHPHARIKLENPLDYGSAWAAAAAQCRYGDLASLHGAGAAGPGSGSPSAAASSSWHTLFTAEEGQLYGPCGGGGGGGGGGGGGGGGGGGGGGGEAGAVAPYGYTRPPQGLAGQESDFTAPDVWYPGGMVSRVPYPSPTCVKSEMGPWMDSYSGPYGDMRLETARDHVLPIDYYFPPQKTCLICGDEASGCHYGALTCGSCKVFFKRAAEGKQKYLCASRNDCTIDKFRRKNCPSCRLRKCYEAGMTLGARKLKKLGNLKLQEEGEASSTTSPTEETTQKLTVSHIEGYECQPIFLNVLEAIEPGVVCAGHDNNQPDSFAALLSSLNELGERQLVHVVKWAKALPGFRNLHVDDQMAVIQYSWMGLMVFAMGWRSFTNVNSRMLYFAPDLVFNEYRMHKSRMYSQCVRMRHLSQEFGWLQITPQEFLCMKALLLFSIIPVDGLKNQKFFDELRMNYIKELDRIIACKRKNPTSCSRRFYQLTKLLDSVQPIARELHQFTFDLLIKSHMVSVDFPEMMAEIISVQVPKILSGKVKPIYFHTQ
Description: Agonistic activity against human androgen receptor (hAR) in co-transfected CV-1 cell

SMILES | IC50 (Progesterone receptor) [nM] | Efficacy [1] [%] | Efficacy [2] [%] | EC50 (Androgen receptor)
CC1(C)CCC[C@]2(C)c3cc4c(C(F)(F)F)cc(O)nc4cc3N[C@H]12 | 430 | 96 | 31 | Not Active
CN1c2cc3c(cc2[C@H]2CCCC[C@H]21)c(C(F)(F)F)cc(=O)n3C | 1000 | 98 | < 20 | Not Active
C[C@H]1CC[C@H]2Nc3cc4c(cc3[C@H]2C1)c(C(F)(F)F)cc(=O)n4C | 380 | 97 | < 20 | Not Active
